Read-outs that look alike come from different tables or passages of the source.
Experiments:
[1] = tested on: rats intoxicated with CCL4; assay: Protection against liver damage in rats intoxicated with CCl4; assay type: in vivo, rat; conditions: treatment 300 mg/kg i.p. half an hour before CCl4; for Alanine aminotranferase activity (ALT): blood 24 h after CCl4 1 mL/kg of 20% solution, controls 12.5 ± 1.7; for Triglycerides: liver 24 h after CCl4, controls 6.5 ± 0.7
Protocol: CCl4 was administered at the dose of 1 mL/kg of a 20% solution in olive oil according to the technique described by Bernacchi (Bernacchi A. G., Brit. J. Exp. Pathol., 61:505, 1980).
Twenty-four hours after administration of CCl4, alanine aminotransferase was assayed as an indicator of enzymatic liver damage in blood from the animals thus treated, according to the colorimetric method described by Reitman (Reitman S., Am. J. Clin. Pathol., 28:56, […]), whereas from the livers taken from the same animals triglycerides were extracted with methanol and chloroform and assayed according to the method described by Kleir (Kleir, J. Biochem. Clin. Bohenescov., 9:243, 1999). The livers were then fixed with Carnon fixative and, after embedding in paraplast, were stained with haematoxylin and eosin.

Sprague Dawley rats [2] = conditions: rat, in vivo, 500 mg/kg
[3] = tested on: isolated, perfused rat kidneys; assay: Renal tubular damage evaluated by release of alanine aminopeptidase (AAP) and N-acetylglucosaminidase (NAG) in isolated, perfused rat kidneys; conditions: treatment 5 mg/L each, after 5 min perfusion
From the text: (§1) Using the isolated rat kidney according to the technique described by Maack (Maack P., Kidney Int., 30:142, 1986) and Shure (Shure K. H., Delugers Arch., 35:4, 1975) and perfusing it with a solution containing cyclosporin-A, it is possible to detect the toxic reactions this substance induces at the renal level relating both to the renal cytomorphology, particularly at the tubular level, and to arteriolar and […] capillary vasoconstriction and the release of enzymes such as alanine aminopeptidase (AAP) and N-acetylglucosaminidase (NAG), the release of which is regarded as a sign of cell damage, as is the release of vasoactive substances such as histamine and endothelin-1.
(§2) In these tests a group of rats were used whose kidneys were isolated, after bilateral nephrectomy, and perfused according to the technique described by Schure and Maack.
(§3) The kidneys thus isolated were perfused by means of a pulsating pump both with a solution containing cyclosporin A or tacrolimus and with a solution containing propionyl L-carnitine or glycine or the two components in combination.
(§4) A […] method was used to measure both AAP and NAG on the renal venous flow. Histamine and endothelin-1 were measured with a colorimetric method or with RIA.

perfused rat kidneys = assay: Renal hypertension induced by cyclosporin-A or tacrolimus in perfused rat kidneys; conditions: treatment 5 mg/L each; for inhibition at 5 µg/mL: Rattus norvegicus
From the text: as §1, §2, §3
Arterial pressure on the perfused kidney was measured by means of a manometer connected up to the renal artery.

[4] = tested on: isolated, perfused rat kidneys; assay: Renal lipoperoxidation induced by cyclosporin-A (MDA + 4-HDA assay); conditions: for MDA + 4-HDA: renal cortex, kidneys perfused with cyclosporin-A, alone or with treatment, control 2.1 ± 0.91
Protocol: as §2, §3
(§5) Lipid peroxidation was measured on samples of renal cortex as described by Longoni (Longoni B., Int. J. Tissue React., 21.7.1997-Lowry O. H., J. Biol. Bioch., 193:265, 1951) and ATP concentrations were determined according to the method described by Sumpio (Sumpio B. E., Am. J. Physiol., 247, PT2, 1047, 1984).

[5] = tested on: isolated and perfused rat kidney; assay: Tests of cyclosporin-A toxicity in isolated and perfused rat kidney, overall assessment; conditions: in words
From the text: as §1, §2, §3

[6] = tested on: isolated, perfused rat kidneys; assay: Glomerular and tubular morphometric abnormalities induced by cyclosporin-A in perfused rat kidney; conditions: for Morphometric indices, tubular ID/ED / Morphometric indices, glomerular CD/BD: kidneys perfused with cyclosporin-A 2 mg/L, alone or with treatment 5 mg/L; for Morphometric indices, tubular ID/ED: control 0.36 ± 0.03; for Morphometric indices, glomerular CD/BD: control 0.93 ± 0.09
From the text: as §2, §3
The parameters observed on the kidneys thus perfused were the capillary diameters (CD) and the Bowman's capsule diameters (BD) and equally the external and internal diameter (ID) and also the diameter at the level of the basal membrane (ED) of at least 20 proximal tubules.

[7] = tested on: isolated, perfused rat kidneys; assay: Histamine and endothelin-1 release induced by cyclosporin-A or tacrolimus in isolated, perfused rat kidneys; conditions: for % inhibition of release, endothelin-1 / % inhibition of release, histamine: treatment 5 mg/L each, after 1 min perfusion
From the text: as §1, §2, §3, §4

Sprague Dawley rats [8] = assay: Toxicology tests, acute i.p./oral and prolonged oral administration
[9] = tested on: isolated, perfused rat kidneys; assay: Reduction of renal ATP induced by cyclosporin-A; conditions: for ATP: kidneys perfused with cyclosporin-A, alone or with treatment, control 6.70 ± 0.51
Protocol: as §2, §3, §5

[10] = induced by cyclosporin-A 2 mg/L

Compound | Alanine aminotranferase activity (ALT) [1] [U/L] | Triglycerides [1] [mg/g] | % inhibition of release, AAP [3, 10] [%] | % inhibition of release, NAG [3, 10] [%] | % inhibition of release, AAP ([3]; induced by tacrolimus 400 μg/L) [%] | % inhibition of release, NAG ([3]; induced by tacrolimus 400 μg/L) [%] | MDA + 4-HDA [4] [nmol/mg protein] | protection of the kidney against morphological/vascular and cellular biochemical damage induced by cyclosporin-A or tacrolimus [5] | Morphometric indices, tubular ID/ED [6] | Morphometric indices, glomerular CD/BD [6] | % inhibition of release, endothelin-1 [7, 10] [%] | % inhibition of release, histamine [7, 10] [%] | % inhibition of release, endothelin-1 ([7]; induced by tacrolimus 400 μg/L) [%] | % inhibition of release, histamine ([7]; induced by tacrolimus 400 μg/L) [%] | mortality or other sign of toxic effects (Sprague Dawley rats [8]; intraperitoneal, 0.5 g/kg each) | mortality or other sign of toxic effects (Sprague Dawley rats [8]; oral, 1 g/kg each) | ATP [9] [nM/g tissue] | further results
ClC(Cl)(Cl)Cl [CCl4, carbon tetrachloride, reference compound] | 105.4 ± 3.8 | 26.5 ± 0.11 |  |  |  |  |  |  |  |  |  |  |  |  |  |  |  | 
NCC(=O)O [Glycine, glycine] | 90.2 ± 8.6 | 22.2 ± 2.1 | 14.2 ± 0.9 | 16.5 ± 0.6 | 18.5 ± 1.1 | 17.2 ± 0.9 | 4.8 ± 0.41 | much less effective | 0.66 ± 0.5 | 0.80 ± 0.5 | 8.8 ± 0.9 | 10.4 ± 1.1 | 6.5 ± 0.7 | 7.5 ± 0.8 | without any mortality being observed | without any mortality being observed | 4.56 ± 0.49 | tolerability of prolonged oral administration (Sprague Dawley rats [2]): well tolerated; inhibition at 5 µg/mL (perfused rat kidneys; 5 min, hypertension induced by cyclosporin-A 2 mg/L, 5 min, read-out: % inhibition of hypertensive effect after 5 min): 6.3 ± 0.9%; inhibition at 5 µg/mL (perfused rat kidneys; 5 min, hypertension induced by tacrolimus 400 μg/L, 5 min, read-out: % inhibition of hypertensive effect after 5 min): 4.8 ± 7.1%; inhibition at 5 µg/mL (perfused rat kidneys; 20 min, hypertension induced by cyclosporin-A 2 mg/L, 20 min, read-out: % inhibition of hypertensive effect after 20 min): 6.8 ± 0.3%; inhibition at 5 µg/mL (perfused rat kidneys; 20 min, hypertension induced by tacrolimus 400 μg/L, 20 min, read-out: % inhibition of hypertensive effect after 20 min): 7.4 ± 0.9%; effect on the lipid peroxidation activity induced by cyclosporin-A ([4]; in words): detectable protective effect; action on the morphological damage induced by cyclosporin A ([6]; in words): not significantly detectable; action on the release of vasoactive substances such as histamine and endothelin ([7]; cyclosporin A, in words): not significantly detectable; action on the reduction in intracellular ATP ([9]; cyclosporin A, in words): not significantly detectable
CCC(=O)O[C@H](CC(=O)[O-])C[N+](C)(C)C [Propionyl L-carnitine, propionyl L-carnitine] | 75.8 ± 5.5 | 18.8 ± 1.8 | 32.8 ± 3.1 | 30.5 ± 2.6 | 35.1 ± 2.9 | 30.8 ± 2.5 | 4.2 ± 0.39 | effective in protecting the kidney | 0.40 ± 0.06 | 0.86 ± 0.7 | 41.2 ± 3.8 | 39.5 ± 4.1 | 34.7 ± 2.7 | 41.5 ± 3.9 | without any mortality being observed | without any mortality being observed | 6.05 ± 0.61 | % inhibition of hypertensive effect after 5 min (perfused rat kidneys; hypertension induced by cyclosporin-A 2 mg/L, 5 min): 18.2 ± 1.5%; % inhibition of hypertensive effect after 20 min (perfused rat kidneys; hypertension induced by cyclosporin-A 2 mg/L, 20 min): 28.4 ± 2.1%; % inhibition of hypertensive effect after 5 min (perfused rat kidneys; hypertension induced by tacrolimus 400 μg/L, 5 min): 22.5 ± 2.3%; % inhibition of hypertensive effect after 20 min (perfused rat kidneys; hypertension induced by tacrolimus 400 μg/L, 20 min): 30.7 ± 2.9%; tolerability of prolonged oral administration (Sprague Dawley rats [8]; oral 500 mg/kg each for 20 days consecutively, weight gain and blood chemistry without toxic abnormalities): well tolerated
cyclosporin-A [reference compound] |  |  |  |  |  |  | 6.5 ± 0.52 |  | 0.75 ± 0.08 | 0.78 ± 0.02 |  |  |  |  |  |  | 4.51 ± 0.41 | 

Source: patent US7897641B2, “Composition for the prevention and/or treatment of the cytotoxic effects induced by the use of immunosuppressive agents” (Sigma-Tau Industrie Farmaceutiche Riunite S.p.A., priority 2000, dated 2011)
